The text below walks through data of patent US7981863B2, “Treatment of Parkinson's disease with PDGF” (Neuronova AB, priority 2001, dated 2011).

For one experiment, the system named is Flk-1. As to conditions: Calbiochem product data; cited from earlier work.
Experiment [1] has as its system rat neural stem cells from the adult lateral ventricle wall. As to the kind of experiment: Expansion of rat neural stem cell cultures, total cell counts at 7 days. As to conditions: for block of the VEGF response / growth of neural stem cell cultures: total cell counts at 7 days; for growth of neural stem cell cultures: growth conditions (EGF and FGF-2), no recombinant VEGF, FIG. 30. In kind it is cell-based. On the procedure:
Neural stem cells were prepared according to the attached protocol. Cells were grown in serum-free medium, subcloned and used between passage 6 and 10. If not otherwise mentioned the experiments consisted of triplets for analysis and were independently repeated at least 3 times.
Basal Medium: Neurobasal medium (NB, Gibco BRL) & B27 supplement (Gibco BRL).
Growth Medium: NB, B27 supplement+20 ng/ml of FGF-2 (R&D Systems)+20 ng/ml EGF (R&D Systems)+2 μg/ml heparin (Sigma, Germany).
Cells were plated in Growth medium at 10.000 cells/ml and after 2 days switched to the experimental condition. Cells were kept under the experimental condition for 7 days.
Adult female Fischer-344 rats (3-4 months; Charles River, Germany) were killed via cervical dislocation, the brains of each rat were removed and stored at 4° C. in DPBS (PAN, Germany) with 4.5 g/L glucose (Merck, Germany) (DPBS/glu). Overlying meninges and blood vessels were removed. Ependymal zone including subependymal/subventricular zone form the lateral wall of the lateral ventricle were aseptically removed. The dissected tissue was transferred to fresh DPBS/glu, washed once, transferred to petri-dishes and dissociated mechanically into a single cell suspension. The cell suspension was washed in DPBS/glu in order to rinse off excess blood and resuspended in PPD-solution containing 0.01% Papain (Worthington Biochemicals, England), 0.1% dispase II (Boehringer, Germany), 0.01% DNase I (Worthington Biochemicals, England) and 12.4 mM MgSO4 in HBSS (PAN, Germany) without Mg^++/Ca^++ (PAA, Germany) and digested for 30 to 40 min at room temperature. The cell solution was triturated every 10 min. Dissociated cells were collected and resuspended in serum-free DMEM/F12 medium containing 2 mM L-glutamine and 0.1 g/L penicillin/streptomycin and washed three times with accurate trituration with a blue tip. Finally the single cell suspension was resuspended in Neurobasal medium (Gibco BRL, Germany) supplemented with B27 (Gibco BRL, Germany) (NB/B27), 2 mM L-glutamine (PAN, Germany), 0.1 g/L penicillin/streptomycin (PAN, Germany), 2 μg/ml heparin (Sigma, Germany), 20 ng/ml bFGF-2 (R&D Systems, Germany) and 20 ng/ml EGF (R&D Systems, Germany). Live cells were counted by trypan blue exclusion assay in a hemocytometer. Cells were seeded in T-25 culture flasks and cultures were maintained at 37° C. in an incubator with 95% air, 5% CO2. Single cells began to form spheres within 5 to 7 days of suspension culture and continued to grow in mass and number over the next weeks. Media were changed every 7 days.
The culture medium containing floating neurospheres was collected in a 15 ml centrifuge tube and centrifuged at 800 rpm. The pellet was resuspended in 200 μl of Accutase (Innovative Cell Technologies Inc., USA, distributed by PAA, Germany) and triturated about 10 times using a pipette. Then, the cell suspension was incubated at 37° C. for 10 min. Dissociated spheres were again triturated and resuspended in 800 μl of NB/B27 medium. An aliquot was counted by trypan blue exclusion assay in a hemocytometer to determine the amount of live and dead cells. 1×10^5 cells were plated in T75 culture flasks for long term passaging (10 ml of culture medium per flask) in NB/B27 medium. The cells obtained after Accutase-treatment of primary neurospheres proliferated and yielded secondary neurospheres. Secondary neurospheres were passaged 7 to 9 days after plating primary neurosphere cells. Similar to primary cultures and primary neurospheres, single cells obtained after dissociation of secondary neurospheres proliferated and yielded tertiary neurospheres. […]

Experiment [2] concerns cells from the lateral ventricle wall. As to conditions: after intraventricular infusion, compared to aCSF controls; FIG. 33.
For experiment [3], the system named is Neural stem cell cultures. Conditions: 50 ng/ml VEGF, 100 nM PADQ or 700 nM SU1498 for 7 days. Here is the method:
BrdU (10 μM) was added to the culture medium 24 hrs before cells were harvested and lysed. DNA was extracted and BrdU content was determined using an anti-BrdU-ELISA. The data are presented as percent changes in optical density compared to control (Growth medium).

The next experiment concerns adult rats. Conditions: four weeks after 7 days of continuous VEGF infusion into the lateral ventricle.
The test system of experiment [4] is cultured, non-adherent mouse neurospheres. Description: Intracellular ATP assay, proliferation of cultured mouse neurospheres. Conditions: FIG. 1. In kind it is cell-based. Here is the method: The anterior lateral wall of the lateral ventricle of 5-6 week old mice was enzymatically dissociated in 0.8 mg/ml hyaluronidase and 0.5 mg/ml trypsin in DMEM containing 4.5 mg/ml glucose and 80 units/ml DNase at 37° C. for 20 min. The cells were gently triturated and mixed with three volumes of Neurosphere medium (DMEM/F12, B27 supplement, 125 mM HEPES pH 7.4) containing 20 ng/ml EGF (unless otherwise stated), 100 units/ml penicillin and 100 μg/ml streptomycin. After passing through a 70 μm strainer, the cells were pelleted at 160×g for 5 min. The supernatant was subsequently removed and the cells resuspended in Neurosphere medium supplemented as above, plated out in culture dishes and incubated at 37° C. Neurospheres were ready to be split approximately 7 days after plating.
To split the neurospheres, cells were collected by centrifugation at 160×g for 5 min. The conditioned supernatant (conditioned medium) was removed and saved. The neurospheres were resuspended in 0.5 ml Trypsin/EDTA in HBSS (1×), incubated at 37° C. for 2 min and triturated gently to aid dissociation. Following a further 3 min incubation at 37° C. and trituration, 3 volumes of ice cold Neurosphere medium medium w/o EGF were added to stop further trypsin activity. […]
After 3 days of treatment, intracelluar ATP was measured using the ATP SL kit (Biothema) according to the manufacturer's instructions.

In experiment [5] the test system is Mouse Cultured Neural Stemcells/Progenitors. Description: GFAP and β-III Tubulin in adherent mouse neural stem cells (Western blot, immunocytochemistry). In kind it is cell-based. Here is the method: NSCs, cultured as described above, were seeded from passage 2 into DMEM/F12 supplemented with B27 into a 24-well plate (poly-D-lysine-coated) as single cells (70.000 cells/well), to which PDGF-AA was added at the concentration of 1 nM. The cells were then differentiated for 5 days changing medium plus/minus PDGF-AA every 48 hours. At day 6 the cells were harvested and Western blots were performed as described elsewhere (Patrone C et al (1999) Proc Natl Acad Sci USA. 96(19):10905-10). A neuronal marker antibody against β-III Tubulin, 1:5000 (BioSite), or a glial marker antibody against glial fibrillary acidic protein (GFAP) 1:5000, (DAKO) was used to measure phenotypic fates.
In another set of experiments the effects of PDGF-AA were studied with immunocytochemical methods in fixed adherently cultured neural stem cells. […] In other experiments with PDGF-AA, analyzed by immunocytochemistry, it was shown that the factor caused a general shift from a stem cell phenotype to a progenitor phenotype in that cultures contained both of the markers, GFAP and β-III Tubulin. […] In concurrent experiments the effect of PDGF-BB was also studied.
On the technique in general: In western blotting, separated proteins are transferred to a membrane and probed.

The test system of a further experiment is Mouse Neural Stem Cells. As to the kind of experiment: Neuronal differentiation (β-III Tubulin) of adult mouse neural stem cells. It counts as cell-based. Conditions: 1 nM, 7 days. Here is the method:
Adult mouse neurosperes were dissociated with trypsin (Gibco) into single cells and transferred to poly-D-Lysine plates (BD) in the above culture medium, without growth factors, supplemented with 1% Fetal Calf Serum (Gibco). The cells were incubated over night to adhere to the plate. The medium was changed to culture medium, without growth factors, supplemented with 1 nM PDGF-AA or PDFG-BB (both from R&D Systems). The medium with new substance added every second day. The cells were incubated for a total of 7 days.
The cells were washed two times with PBS (Gibco) and fixed for 15 min RT with 4% Formaldehyde (Sigma) and permeabilized 20 min RT in 0.1% Triton X-100 (Sigma) in PBS. After fixation and permeabilization the cells were labelled with mouse monoclonal anti-β-III Tubulin (1:500 Promega). Primary antibody was visualized with anti mouse Texas-Red (1:100 Vector Laboratories). All antibodies were diluted in PBS with 0.1% Triton X-100.
The cells were washed twice with PBS (Gibco) and lysed with 200 ul lysis buffer/well. The lysis buffer contained PBS, 0.1% Triton X-100, 1 mM EDTA and 1 tab1. Protease inhibitor cocktail (Roche). The samples were run on a 4-12% Bis-Tris gel (Novex) under reduced conditions with MOPS buffer (Novex) and blotted onto a Hybond ECL nitrocellulose membrane (Amersham Biotech). Blocked in 5% ECL-Block (Amersham Biotech) in PBS+0.1% Tween 20 (Sigma). The membranes were labelled with mouse monoclonal anti-β-III Tubulin (1:5000 Promega). The primary antibody was detected using a secondary antibody anti-mouse-HRP (1:10000 Amersham Biotech) and ECL Plus+ Western Blot Detection Kit (Amersham Biotech). All antibodies were diluted in PBS with 0.1% Triton X-100, 1% ECL Block. The signal were then captured on ECL Hyper Film (Amersham Biotech)

The mark [6] stands for this setting: basal medium, VEGF 50 ng/ml, PADQ 100 nM, SU1498 700 nM.
[7] abbreviates: growth conditions (including EGF and FGF-2).
Where [8] appears, read: 1 nM, 6 days, adherent culture, compared to treatment with EGF.
Where [9] appears, read: fixed adherently cultured neural stem cells.

Take `COc1cc2ncnc(Nc3ccc(Cl)cc3F)c2cc1OC` [PADQ]: in the experiment on Flk-1, the IC50 is 0.1 µM. The “block of the VEGF response” value in experiment [1] (setting [6]) and in experiment [1] (setting [7]) was “able to block the VEGF response” each time. Further, the “growth of neural stem cell cultures” value in experiment [1] is recorded as “significantly reduce the growth”.

As for `CC(C)c1cc(/C=C(\C#N)C(=O)NCCCc2ccccc2)cc(C(C)C)c1O` [SU1498, (E)-3-(3,5-Diisopropyl-4-hydroxyphenyl)-2-[(3-phenyl-n-propyl)amino-carbonyl]acrylonitrile], the concentration for half-maximal inhibition (IC50) in the experiment with Flk-1 is 0.7 µM. In addition, the “block of the VEGF response” value in experiment [1] (setting [6]) and in experiment [1] (setting [7]) was “able to block the VEGF response” in each case. For the same molecule, the “growth of neural stem cell cultures” value in experiment [1] is recorded as “significantly reduce the growth”.

For the molecule VEGF, the “number of spheres formed in culture from lateral ventricle wall cells” value in experiment [2] is on record as “significantly increased”. For the same molecule, in experiment [3], the “BrdU incorporation (proliferation ELISA)” value is on record as “more BrdU” and the “DNA strand breaks (apoptosis ELISA)” value is recorded as “reduced the amount of DNA strand breaks”. For the same molecule, in the experiment on adult rats, the “BrdU labeled cells in the dentate gyrus” value is “marked increase”. Further, the “stimulation of proliferation of neural stem cell cultures” value in experiment [1] (different concentrations, 7 days, FIG. 24, FIG. 25) is “dose-dependent stimulatory effect”. For the same molecule, in experiment [1] (growth medium, 7 days, FIG. 27), the “ED50 (expansion of neural stem cell cultures)” value was about 0.01 mg/L and the “concentration of maximal stimulation” value was determined as 50 ng/mL.

On to “PDGF-AA: human recombinant PDGF-AA, platelet derived growth factor A-chain homodimer”, for which, in experiment [4] (PDGF-AA added together with PDGF-BB, B27 medium), the “effect on the proliferative effect of PDGF-BB when added together” value is on record as “did not alter the proliferative effect of PDGF-BB”. Further, in experiment [4] (growth media supplemented with B27, 1 nM-0.0005 nM, 3 days of treatment), the “proliferative effect (intracellular ATP)” value is given as “weaker compared to BB”. Further, in experiment [5] (setting [8]), the “GFAP (Western blot)” value is “downregulation of GFAP” and the “β-III Tubulin neuronal marker (Western blot)” value was “significant increase”. In addition, in experiment [5] (setting [9]), the “GFAP (immunocytochemistry)” value is reported as “down regulation of GFAP” and the “β-III Tubulin (immunocytochemistry)” value is given as “upregulation of β-III Tubulin”. The “number of β-III Tubulin positive cells in culture” value with Mouse Neural Stem Cells (compared to the control, FIG. 5) was “significantly increase the number of β-III Tubulin positive cells”. Also, the “levels of β-III Tubulin protein (Western blot)” value in the experiment on Mouse Neural Stem Cells (compared with the control, FIG. 6) was “significantly increased levels of β-III Tubulin protein”. Besides, in the experiment with Mouse Neural Stem Cells (FIG. 5 and FIG. 6), the “neuronal differentiation of cultured mouse neural stem cells/progenitors” value is given as “trigger neuronal differentiation”.

In general, IC50 refers to the concentration at which inhibition is half-maximal.
